PubChem BioAssay (NCI)
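A five-concentration, 48-hour dose response in 96-well plates underlies each endpoint, interpolated linearly between surrounding concentrations. TGI denotes the concentration required for complete inhibition of growth.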

How the values were obtained:
Assay in all cases: inhibition of tumour cell growth, NCI panel, 48 h
IGROV1 ovarian = test system: IGROV1 ovarian
M19-MEL melanoma = test system: M19-MEL melanoma
SN12C renal = test system: SN12C renal
NCI-H522 lung = test system: NCI-H522 lung
MALME-3M melanoma = test system: MALME-3M melanoma
OVCAR-8 ovarian = test system: OVCAR-8 ovarian
SF-539 CNS = test system: SF-539 CNS
HCT-15 colon = test system: HCT-15 colon
UACC-257 melanoma = test system: UACC-257 melanoma
OVCAR-3 ovarian = test system: OVCAR-3 ovarian
UO-31 renal = test system: UO-31 renal
MOLT-4 leukemia = test system: MOLT-4 leukemia
SNB-19 CNS = test system: SNB-19 CNS
DMS 114 small cell lung = test system: DMS 114 small cell lung
NCI-H23 lung = test system: NCI-H23 lung
DLD-1 colon = test system: DLD-1 colon
XF 498 CNS = test system: XF 498 CNS
HL-60(TB) leukemia = test system: HL-60(TB) leukemia
SF-295 CNS = test system: SF-295 CNS
LOX IMVI melanoma = test system: LOX IMVI melanoma
786-0 renal = test system: 786-0 renal
SNB-78 CNS = test system: SNB-78 CNS
SK-MEL-28 melanoma = test system: SK-MEL-28 melanoma
SF-268 CNS = test system: SF-268 CNS
HCT-116 colon = test system: HCT-116 colon
K-562 leukemia = test system: K-562 leukemia
UACC-62 melanoma = test system: UACC-62 melanoma
CCRF-CEM leukemia = test system: CCRF-CEM leukemia
DMS 273 small cell lung = test system: DMS 273 small cell lung
SK-MEL-2 melanoma = test system: SK-MEL-2 melanoma
SK-MEL-5 melanoma = test system: SK-MEL-5 melanoma
SK-OV-3 ovarian = test system: SK-OV-3 ovarian
NCI-H460 lung = test system: NCI-H460 lung
NCI-H226 lung = test system: NCI-H226 lung
OVCAR-4 ovarian = test system: OVCAR-4 ovarian
M14 melanoma = test system: M14 melanoma
A549 NSCLC = test system: A549 NSCLC
HT29 colon = test system: HT29 colon
U251 CNS = test system: U251 CNS
RXF 393 renal = test system: RXF 393 renal
KM12 colon = test system: KM12 colon
ACHN renal = test system: ACHN renal
A498 renal = test system: A498 renal
TK-10 renal = test system: TK-10 renal

COc1ccc(C2C(Cl)C(=O)N2NC(=O)c2ccccc2O)cc1OC (centres undefined)
TGI (IGROV1 ovarian): > 100 µM
TGI (M19-MEL melanoma): > 100 µM
TGI (SN12C renal): > 100 µM
TGI (NCI-H522 lung): > 100 µM
TGI (MALME-3M melanoma): > 100 µM
TGI (OVCAR-8 ovarian): > 100 µM
TGI (SF-539 CNS): > 100 µM
TGI (HCT-15 colon): > 100 µM
TGI (UACC-257 melanoma): > 100 µM
TGI (OVCAR-3 ovarian): > 100 µM
TGI (UO-31 renal): > 100 µM
TGI (MOLT-4 leukemia): > 100 µM
TGI (SNB-19 CNS): > 100 µM
TGI (DMS 114 small cell lung): > 100 µM
TGI (NCI-H23 lung): > 100 µM
TGI (DLD-1 colon): > 100 µM
TGI (XF 498 CNS): 47.7 µM
TGI (HL-60(TB) leukemia): > 100 µM
TGI (SF-295 CNS): > 100 µM
TGI (LOX IMVI melanoma): > 100 µM
TGI (786-0 renal): > 100 µM
TGI (SNB-78 CNS): > 100 µM
TGI (SK-MEL-28 melanoma): > 100 µM
TGI (SF-268 CNS): > 100 µM
TGI (HCT-116 colon): > 100 µM
TGI (K-562 leukemia): > 100 µM
TGI (UACC-62 melanoma): > 100 µM
TGI (CCRF-CEM leukemia): > 100 µM
TGI (DMS 273 small cell lung): > 100 µM
TGI (SK-MEL-2 melanoma): > 100 µM
TGI (SK-MEL-5 melanoma): > 100 µM
TGI (SK-OV-3 ovarian): > 100 µM
TGI (NCI-H460 lung): > 100 µM
TGI (NCI-H226 lung): > 100 µM
TGI (OVCAR-4 ovarian): > 100 µM
TGI (M14 melanoma): > 100 µM
TGI (A549 NSCLC): > 100 µM
TGI (HT29 colon): > 100 µM
TGI (U251 CNS): > 100 µM
TGI (RXF 393 renal): > 100 µM
TGI (KM12 colon): > 100 µM
TGI (ACHN renal): > 100 µM
TGI (A498 renal): > 100 µM
TGI (TK-10 renal): > 100 µM
